Reference: ChEMBL document CHEMBL4177524, “Discovery of hepatitis B virus capsid assembly inhibitors leading to a heteroaryldihydropyrimidine based clinical candidate (GLS4)” (Bioorg Med Chem, 2017)

Tests used:
[1] = Cytotoxicity in human HepG2.215 cells assessed as reduction in cell viability after 5 days by CCK8 assay; format: cell-based, HepG2 2.2.15; conditions: HepG2.2.15 cells
[2] = target: Core antigen (Hepatitis B virus) (UniProt Q03732); experiment: Inhibition of hepatitis B virus capsid assembly infected in human HepG2.215 cells assessed as reduction in viral DNA replication measured on day 7 by real time PCR analysis; format: cell-based
Hepatitis B virus [3] = experiment: Antiviral activity against entecavir-resistant hepatitis B virus harboring reverse transcriptase M204I/S202G double mutant infected in human Huh7 cells assessed as reduction in intracellular DNA levels measured on day 7 by real-time PCR analysis; format: functional, organism-based; conditions: Huh-7, 168 h
Hepatitis B virus [4] = experiment: Antiviral activity against entecavir-resistant hepatitis B virus harboring reverse transcriptase M204I/S202G/M250V triple mutant infected in human Huh7 cells assessed as reduction in intracellular DNA levels measured on day 7 by real-time PCR analysis; format: functional, organism-based; conditions: Huh-7, 168 h
Hepatitis B virus [5] = experiment: Antiviral activity against entecavir-resistant hepatitis B virus harboring reverse transcriptase M204I/S202G double mutant infected in human Huh7 cells assessed as reduction in secreted DNA levels measured on day 7 by real-time PCR analysis; format: functional, organism-based; conditions: Huh-7, 168 h
Hepatitis B virus [6] = experiment: Antiviral activity against entecavir-resistant hepatitis B virus harboring reverse transcriptase M204I/S202G/M250V triple mutant infected in human Huh7 cells assessed as reduction in secreted DNA levels measured on day 7 by real-time PCR analysis; format: functional, organism-based; conditions: Huh-7, 168 h
Hepatitis B virus [7] = experiment: Antiviral activity against entecavir-resistant wild type hepatitis B virus infected in human Huh7 cells assessed as reduction in intracellular DNA levels measured on day 7 by real-time PCR analysis; format: functional, organism-based; conditions: Huh-7, 168 h
Hepatitis B virus [8] = experiment: Antiviral activity against entecavir-resistant wild type hepatitis B virus infected in human Huh7 cells assessed as reduction in secreted DNA levels measured on day 7 by real-time PCR analysis; format: functional, organism-based; conditions: Huh-7, 168 h

Chain of Core antigen (Hepatitis B virus) (Q03732 as listed by the source): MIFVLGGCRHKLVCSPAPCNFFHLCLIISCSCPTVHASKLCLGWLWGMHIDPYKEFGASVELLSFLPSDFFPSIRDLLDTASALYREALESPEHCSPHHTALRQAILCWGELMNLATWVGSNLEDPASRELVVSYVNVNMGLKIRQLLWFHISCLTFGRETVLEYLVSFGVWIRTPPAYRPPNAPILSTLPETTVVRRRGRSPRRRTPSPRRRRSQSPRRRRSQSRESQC

C[C@H](Cn1cnc2c(N)ncnc21)OCP(=O)(O)O [TENOFOVIR ANHYDROUS]
CC50 at 120 h [1]: 399 µM

COC(=O)C1=C(C)NC(c2nccs2)=N[C@H]1c1ccc(F)cc1Cl
EC90 [2]: 0.3 µM | CC50 at 120 h [1]: > 45 µM

C=C1[C@H](CO)[C@@H](O)C[C@@H]1n1cnc2c(=O)[nH]c(N)nc21
CC50 at 120 h [1]: 30 µM | EC50 (Hepatitis B virus [3]): > 20 µM | EC50 (Hepatitis B virus [4]): > 20 µM | EC50 (Hepatitis B virus [5]): > 20 µM | EC50 (Hepatitis B virus [6]): > 20 µM | EC50 (Hepatitis B virus [7]): 0.013 µM | EC50 (Hepatitis B virus [8]): 0.014 µM

Nc1ncnc2c1ncn2CCOCP(=O)(O)O [ADEFOVIR]
CC50 at 120 h [1]: 200 µM
